Results as given in patent publication US20160194299A1 (priority 2013, published 2016).
≈ marks a conversion by molar mass, not a printed value. Like-named read-outs stand apart in the source and are kept apart here.

What was measured:
Mtb [1] = test: microbe, parasite or virus in culture; format: cell-based, Mycobacterium tuberculosis; conditions: Mycobacterium tuberculosis, read-out: MIC (I)
Mtb [2] = test: microbe, parasite or virus in culture; format: cell-based, Mycobacterium tuberculosis; conditions: Mycobacterium tuberculosis, read-out: MIC (III)
in vitro = conditions: African green monkey

SMILES | MIC (Mtb [1]) [mg/L] | MIC (Mtb [2]) [mg/L] | CC50 (in vitro) [mg/L]
CCOC(=O)NC(=O)c1ccsc1NC(=O)c1cc2nc(C)cc(C)n2n1 [Compound 121] | > 3 | > 25 | > 50
CCOC(=O)NC(=O)c1ccsc1NC(=O)c1cc(C)nc2ccccc12 [Compound 122] | > 3 | > 25 | > 50
CCOC(=O)NC(=O)c1ccsc1NC(=O)c1ccnc2ccc(OC)cc12 [Compound 123] | > 3 | 5 to 25 (≈ 12.5 to 62.6 µM) | > 50
CCOC(=O)NC(=O)c1ccsc1NC(=O)c1cn2cccc(C#N)c2n1 [Compound 124] | > 3 | < 5 | > 50
CCOC(=O)NC(=O)c1ccsc1NC(=O)c1nc2ncccn2n1 [Compound 125] | > 3 | 5 to 25 (≈ 13.9 to 69.4 µM) | > 50
CCOC(=O)NC(=O)c1ccsc1NC(=O)c1nc(S(C)(=O)=O)ncc1Cl [Compound 126] | > 3 | > 25 | < 25
CCOC(=O)NC(=O)c1ccsc1NC(=O)c1cnc(OC)cn1 [Compound 127] | > 3 | > 25 | > 50
CCOC(=O)NC(=O)c1ccsc1NC(=O)c1cnc(O)cn1 [Compound 129] | > 3 | > 25 | > 50
CCOC(=O)NC(=O)c1ccsc1NC(=O)c1nc(-c2ccccc2)oc1C [Compound 130] | > 3 | > 25 | > 50
CCOC(=O)NC(=O)c1ccsc1NC(=O)c1csc(C(F)(F)F)n1 [Compound 131] | > 3 | 5 to 25 (≈ 12.7 to 63.6 µM) | < 25
CCOC(=O)NC(=O)c1ccsc1NC(=O)c1ccc2c(c1)CCO2 [Compound 132] | > 3 | 5 to 25 (≈ 13.9 to 69.4 µM) | > 50
CCOC(=O)NC(=O)c1ccsc1NC(=O)c1csc(-c2ccccn2)n1 [Compound 133] | > 3 | > 25 | > 50
CCOC(=O)NC(=O)c1ccsc1NC(=O)c1sc(-c2ccncc2)nc1C [Compound 135] | > 3 | > 25 | > 50
CCOC(=O)NC(=O)c1ccsc1NC(=O)c1sc(-c2cccnc2)nc1C [Compound 136] | > 3 | > 25 | > 50
CCOC(=O)NC(=O)c1ccsc1NC(=O)c1sc(C)nc1C(F)(F)F [Compound 137] | > 3 | > 25 | > 50
CCOC(=O)NC(=O)c1ccsc1NC(=O)c1nn(-c2ccccc2)nc1C [Compound 138] | > 3 | > 25 | > 50
CCOC(=O)NC(=O)c1ccsc1NC(=O)c1cccc2ncccc12 [Compound 139] | > 3 | > 25 | > 50
CCOC(=O)NC(=O)c1ccsc1NC(=O)c1ccc(=O)n(C)c1 [Compound 140] | > 3 | 5 to 25 (≈ 14.3 to 71.6 µM) | > 50
CCOC(=O)NC(=O)c1ccsc1NC(=O)c1cnc2ccccn12 [Compound 142] | > 3 | > 25 | 25 to 50 (≈ 69.8 to 140 µM)
CCOC(=O)NC(=O)c1ccsc1NC(=O)C1CCc2ccccc2N1 (stereo not drawn) [Compound 143] | > 3 | 5 to 25 (≈ 13.4 to 66.9 µM) | > 50
CCOC(=O)NC(=O)c1ccsc1NC(=O)c1nc(C(F)(F)F)cs1 [Compound 144] | > 3 | > 25 | > 50
CCOC(=O)NC(=O)c1ccsc1NC(=O)c1ccc2cnccc2c1 [Compound 145] | > 3 | > 25 | > 50
CCOC(=O)NC(=O)c1c(C)csc1NC(=O)c1ccc2scnc2c1 [Compound 146] | > 3 | > 25 | > 50

SMILES | MIC (Mtb [1]) [mg/L] | MIC (Mtb [2]) [mg/L] | CC50 (in vitro) [mg/L]
CCOC(=O)NC(=O)c1ccsc1NC(=O)c1cc(O)ncn1 [Compound 147] | > 3 | > 25 | > 50
CCOC(=O)NC(=O)c1ccsc1NC(=O)c1cn2cc(C)ccc2n1 [Compound 208] | > 3 | > 25 | > 50
CCOC(=O)NC(=O)c1ccsc1NC(=O)c1nc2c(s1)CCCC2 [Compound 217] | < 1 | > 25 | > 50
CCOC(=O)NC(=O)c1ccsc1NC(=O)c1nc2c(N3CCOCC3)ccnc2s1 [Compound 247] | < 1 | 5 to 25 (≈ 10.8 to 54.2 µM) | 25 to 50 (≈ 54.2 to 108 µM)
CCOC(=O)NC(=O)c1ccsc1NC(=O)c1nc2c(N3CCOCC3)nccc2s1 [Compound 248] | < 1 | > 25 | > 50
CN1CCCN(C(=O)c2ccsc2NC(=O)c2nc3ccccc3s2)CC1 [Compound 254] | > 3 | > 25 | > 50
CCN1CCN(C(=O)c2ccsc2NC(=O)c2nc3ccccc3s2)CC1 [Compound 257] | > 3 | 5 to 25 (≈ 12.5 to 62.4 µM) | 25 to 50 (≈ 62.4 to 125 µM)
O=C(Nc1sccc1C(=O)N1CCN(c2ccccc2)CC1)c1nc2ccccc2s1 [Compound 258] | > 3 | > 25 | > 50
O=C(Nc1sccc1C(=O)NC1CCNCC1)c1nc2ccccc2s1 [Compound 259] | > 3 | > 25 | > 50
CC1CCN(C(=O)c2ccsc2NC(=O)c2nc3ccccc3s2)CC1 [Compound 260] | > 3 | > 25 | 25 to 50 (≈ 64.8 to 130 µM)
CCOC(=O)NC(=O)c1ccsc1NC(=O)c1nc2c(N3CCN(C)CC3)nccc2s1 [Compound 262] | 1 to 3 (≈ 2.11 to 6.32 µM) | 5 to 25 (≈ 10.5 to 52.7 µM) | 25 to 50 (≈ 52.7 to 105 µM)
CCOC(=O)NC(=O)c1ccsc1NC(=O)c1cncn1C [Compound 263] | > 3 | > 25 | > 50
CCOC(=O)NC(=O)c1ccsc1NC(=O)c1cnc2ccccc2c1 [Compound 264] | < 1 | 5 to 25 (≈ 13.5 to 67.7 µM) | < 25
CCOC(=O)NC(=O)c1ccsc1NC(=O)c1cnn2ccccc12 [Compound 265] | > 3 | > 25 | 25 to 50 (≈ 69.8 to 140 µM)
CCOC(=O)NC(=O)c1ccsc1NC(=O)c1cnc2c(Br)cnn2c1 [Compound 266] | < 1 | > 25 | 25 to 50 (≈ 57 to 114 µM)
CCOC(=O)NC(=O)c1ccsc1NC(=O)c1nc2cnc(Cl)cc2s1 [Compound 267] | < 1 | > 25 | > 50
CCOC(=O)NC(=O)c1ccsc1NC(=O)c1nc2c(N(C)C)ccnc2s1 [Compound 268] | < 1 | > 25 | > 50
CCOC(=O)NC(=O)c1ccsc1NC(=O)c1nc2c(N3CCN(C)CC3)ccnc2s1 [Compound 269] | < 1 | 5 to 25 (≈ 10.5 to 52.7 µM) | > 50
CCOC(=O)NC(=O)c1ccsc1NC(=O)c1nc2c(N(C)C)nccc2s1 [Compound 270] | < 1 | > 25 | > 50
O=C(NC(=O)c1ccsc1NC(=O)c1nc2ccccc2s1)OCc1ccc(F)cc1 [Compound 274] | 1 to 3 (≈ 2.2 to 6.59 µM) | > 25 | < 25
O=C(NC(=O)c1ccsc1NC(=O)c1nc2cnccc2s1)OCc1ccc(F)cc1 [Compound 275] | > 3 | > 25 | 25 to 50 (≈ 54.8 to 110 µM)
CCOC(=O)NC(=O)c1cc(CC(=O)OC)sc1NC(=O)c1nc2cnccc2s1 [Compound 276] | > 3 | > 25 | 25 to 50 (≈ 55.7 to 111 µM)
